Holding throughout (format): functional
One assay has as its system A549. Briefly: Growth inhibition of human A549/ATCC cells at 10^-5 M incubated for 48 hrs by sulforhodamine B assay. The following applies: A549, 48 h, read-out: GI. Background: Sulforhodamine B stains cellular protein and so reports cell mass.
A further assay has as its system MCF7. Briefly: Growth inhibition of human MCF7 cells at 10^-5 M incubated for 48 hrs by sulforhodamine B assay. Conditions: MCF7, 48 h, read-out: GI.
A further assay concerns SN12C. Description: Growth inhibition of human SN12C cells at 10^-5 M incubated for 48 hrs by sulforhodamine B assay. The following applies: read-out: GI.
The next assay deals with NCI-H522. Briefly: Growth inhibition of human NCI-H522 cells at 10^-5 M incubated for 48 hrs by sulforhodamine B assay. The following applies: NCI-H522, 48 h, read-out: GI.
Another assay concerns EKVX. Briefly: Growth inhibition of human EKVX cells at 10^-5 M incubated for 48 hrs by sulforhodamine B assay. Conditions: read-out: GI.
The subject of another assay is UACC-257. Briefly: Growth inhibition of human UACC257 cells at 10^-5 M incubated for 48 hrs by sulforhodamine B assay. Conditions: UACC-257, 48 h, read-out: GI.
The subject of a further assay is OVCAR-3. Briefly: Growth inhibition of human OVCAR3 cells at 10^-5 M incubated for 48 hrs by sulforhodamine B assay. The following applies: OVCAR-3, 48 h, read-out: GI.
Another assay relates to KM12. Description: Growth inhibition of human KM12 cells at 10^-5 M incubated for 48 hrs by sulforhodamine B assay. The following applies: KM12, 48 h, read-out: GI.
For another assay, the system named is U-251. Description: Growth inhibition of human U251 cells at 10^-5 M incubated for 48 hrs by sulforhodamine B assay. Conditions: U-251, 48 h, read-out: GI.
The subject of another assay is HOP-92. Briefly: Growth inhibition of human HOP92 cells at 10^-5 M incubated for 48 hrs by sulforhodamine B assay. The following applies: HOP-92, 48 h, read-out: GI.
Another assay relates to SNB-75. Briefly: Growth inhibition of human SNB75 cells at 10^-5 M incubated for 48 hrs by sulforhodamine B assay. Conditions: SNB-75, 48 h, read-out: GI.
A further assay deals with OVCAR-4. Description: Growth inhibition of human OVCAR4 cells at 10^-5 M incubated for 48 hrs by sulforhodamine B assay. Conditions: OVCAR-4, 48 h, read-out: GI.
A further assay concerns LOX IMVI. Description: Growth inhibition of human LOXIMVI cells at 10^-5 M incubated for 48 hrs by sulforhodamine B assay. Conditions: read-out: GI.
The next assay has as its system HT-29. Briefly: Growth inhibition of human HT-29 cells at 10^-5 M incubated for 48 hrs by sulforhodamine B assay. The following applies: HT-29, 48 h, read-out: GI.
The next assay has as its system OVCAR-5. Briefly: Growth inhibition of human OVCAR5 cells at 10^-5 M incubated for 48 hrs by sulforhodamine B assay. Conditions: OVCAR-5, 48 h, read-out: GI.
The next assay concerns HCT-116. Briefly: Growth inhibition of human HCT116 cells at 10^-5 M incubated for 48 hrs by sulforhodamine B assay. Conditions: HCT-116, 48 h, read-out: GI.
The test system of the next assay is CCRF-CEM. Briefly: Growth inhibition of human CCRF-CEM cells at 10^-5 M incubated for 48 hrs by sulforhodamine B assay. Conditions: read-out: GI.
For a further assay, the system named is DU-145. Briefly: Growth inhibition of human DU145 cells at 10^-5 M incubated for 48 hrs by sulforhodamine B assay. Conditions: DU-145, 48 h, read-out: GI.
A further assay relates to NCI/ADR-RES. Description: Growth inhibition of human NCI/ADR-RES cells at 10^-5 M incubated for 48 hrs by sulforhodamine B assay. The following applies: read-out: GI.
Another assay concerns HCC 2998. Briefly: Growth inhibition of human HCC2998 cells at 10^-5 M incubated for 48 hrs by sulforhodamine B assay. The following applies: HCC 2998, 48 h, read-out: GI.
The next assay has as its system MDA-MB-435. Briefly: Growth inhibition of human MDA-MB-435 cells at 10^-5 M incubated for 48 hrs by sulforhodamine B assay. Conditions: MDA-MB-435, 48 h, read-out: GI.

Inhibition of growth data for seven compounds are collected here from ChEMBL document CHEMBL4414672, “Synthesis of certain benzothieno[3,2-d]pyrimidine derivatives as a selective SIRT2 inhibitors” (Eur J Med Chem, 2020).

For `N=C1Nc2c(sc3ccc(Cl)cc23)C(c2cccc([N+](=O)[O-])c2)N1` (configuration not stated), the inhibition of growth at 10 µM was 20.4% with A549; 10.7% in the assay with MCF7; -19.7% in the assay on SN12C; -4.45% in the assay on NCI-H522; 15.1% in the assay on EKVX; 9.45% in the assay with UACC-257. Further, the inhibition of growth at 10 µM in the assay with OVCAR-3 was 10.7%; with KM12 it was 6.62%; with U-251, 0.68%; in the assay on HOP-92 it was 19.2%; in the assay on SNB-75, -4.54%; with OVCAR-4, -4.7%. Also, the inhibition of growth at 10 µM in the assay on LOX IMVI was -9.93%; in the assay with HT-29, 1.65%; in the assay with OVCAR-5 it was -1.04%; with HCT-116, 2.65%; with CCRF-CEM, 8.41%; in the assay with DU-145, 20.5%. Besides, the inhibition of growth at 10 µM is 8.91% in the assay on NCI/ADR-RES, 9.09% in the assay with HCC 2998 and -4.98% with MDA-MB-435.

Consider `O=[N+]([O-])c1cccc(C2c3sc4ccc(Cl)cc4c3N=C3NN=NN32)c1` (configuration not stated), for which the inhibition of growth at 10 µM is 9.64% with A549; 15.4% with MCF7; 9.98% with SN12C; -7.9% in the assay on NCI-H522; 8.75% with EKVX; 3.87% with UACC-257. Besides, the inhibition of growth at 10 µM with OVCAR-3 was -0.5%; in the assay with KM12, -1.99%; in the assay on U-251 it was 3.96%; in the assay with HOP-92 it was 12.8%; in the assay on SNB-75 it was -9.67%; in the assay with OVCAR-4 it was -6.3%. For the same compound, the inhibition of growth at 10 µM with LOX IMVI was -0.19%; in the assay on HT-29, -2.76%; in the assay with OVCAR-5 it was -6.97%; in the assay with HCT-116, -7.64%; in the assay with CCRF-CEM, -11.4%; in the assay with DU-145 it was 22%. The results for the inhibition of growth at 10 µM in the assay on NCI/ADR-RES, in the assay on HCC 2998 and with MDA-MB-435 were 3.11%, 1.22% and 2.65%, respectively.

In the case of `O=C1/C(=C\c2cccc([N+](=O)[O-])c2)Sc2ccc(Cl)cc21`, the inhibition of growth at 10 µM in the assay with A549 is -6.89%; with MCF7 it was 22.4%; in the assay with SN12C, -12.1%; in the assay with NCI-H522, 25.8%; with EKVX it was 4.33%; with UACC-257, -6.4%. Also, the inhibition of growth at 10 µM is -2.4% with OVCAR-3; -2.29% with KM12; 13.8% in the assay on U-251; 42.7% in the assay with HOP-92; 12.3% in the assay with SNB-75; 21.4% in the assay on OVCAR-4. In addition, the inhibition of growth at 10 µM in the assay on LOX IMVI was 8.68%; with HT-29 it was -3.12%; in the assay with OVCAR-5 it was -1.89%; in the assay with HCT-116 it was 45.9%; in the assay on CCRF-CEM it was -0.32%; with DU-145, -3.94%. Besides, the inhibition of growth at 10 µM is 7.92% with NCI/ADR-RES, -36.5% with HCC 2998 and 35.4% in the assay with MDA-MB-435.

Turning to `O=C1Nc2c(sc3ccc(Cl)cc23)C(c2cccc([N+](=O)[O-])c2)N1` (configuration not stated), the inhibition of growth at 10 µM in the assay on A549 was 1.5%; with MCF7, 21.8%; with SN12C it was 7.07%; with NCI-H522, 9.73%; in the assay on EKVX, 25.3%; in the assay on UACC-257 it was 0.85%. The inhibition of growth at 10 µM in the assay on OVCAR-3 is -1.08%; in the assay with KM12, 3.73%; with U-251 it was 6.51%; in the assay on HOP-92, 17.8%; in the assay with SNB-75 it was 22.8%; with OVCAR-4, 7.21%. Further, the inhibition of growth at 10 µM in the assay with LOX IMVI is 4.86%; in the assay on HT-29 it was -3%; in the assay with OVCAR-5, 0.73%; with HCT-116, 5.37%; with CCRF-CEM it was -13.9%; in the assay with DU-145, -4.61%. For the same compound, the results for the inhibition of growth at 10 µM with NCI/ADR-RES, in the assay on HCC 2998 and in the assay on MDA-MB-435 were 6.5%, -3.91% and -2.51%, respectively.

Consider `O=C1/C(=C\c2cccc(Br)c2)Sc2ccc(Cl)cc21`, for which the inhibition of growth at 10 µM is 2.51% with A549; -12.3% with MCF7; -0.02% with SN12C; 5.63% in the assay on NCI-H522; -0.43% with EKVX; -6.58% with UACC-257. Besides, the inhibition of growth at 10 µM with OVCAR-3 was -12.1%; in the assay on KM12, -0.19%; in the assay on U-251, -3.45%; with HOP-92 it was -15.1%; in the assay on SNB-75, 2.14%; with OVCAR-4, -9.77%. Besides, the inhibition of growth at 10 µM in the assay on LOX IMVI was 2.63%; in the assay on HT-29 it was -10.6%; with OVCAR-5 it was -9.67%; in the assay with HCT-116 it was 0.42%; in the assay with CCRF-CEM, -14.5%; with DU-145, -12.3%. Further, the values for the inhibition of growth at 10 µM in the assay with NCI/ADR-RES, in the assay on HCC 2998 and with MDA-MB-435 were -2.33%, -3.41% and -14%, respectively.

`O=C1CC(=O)N(C2=Nc3c(sc4ccc(Cl)cc34)C(c3cccc([N+](=O)[O-])c3)N2)N1` (configuration not stated): the inhibition of growth at 10 µM is -4.87% in the assay with A549; 21.7% with MCF7; 18.3% in the assay with SN12C; 9.63% in the assay with NCI-H522; 21.9% with EKVX; -8.39% in the assay with UACC-257. Also, the inhibition of growth at 10 µM with OVCAR-3 was -6.5%; with KM12, -3.57%; in the assay with U-251 it was -10.9%; with HOP-92, -17.6%; in the assay on SNB-75, 8.27%; in the assay with OVCAR-4 it was -11.5%. For the same compound, the inhibition of growth at 10 µM with LOX IMVI was 2.94%; in the assay with HT-29, -6.83%; in the assay on OVCAR-5, -2.6%; in the assay on HCT-116 it was 0.7%; with CCRF-CEM, -32.1%; in the assay on DU-145, -15.1%. The inhibition of growth at 10 µM in the assay with NCI/ADR-RES is -2.89%; in the assay on HCC 2998, -8.39%; with MDA-MB-435 it was -10.2%.

Consider `O=C1/C(=C\c2ccccc2O)Sc2ccc(Cl)cc21`, for which the inhibition of growth at 10 µM with A549 was -0.44%; in the assay with MCF7, -12.3%; in the assay on SN12C, 5.15%; in the assay with NCI-H522, 5.61%; with EKVX it was 13.3%; in the assay with UACC-257, -1.33%. The inhibition of growth at 10 µM with OVCAR-3 was -11.6%; in the assay on KM12, -0.47%; with U-251, -8.52%; with HOP-92 it was 3%; in the assay with SNB-75 it was 22.3%; in the assay on OVCAR-4, 1.63%. For the same compound, the inhibition of growth at 10 µM was 9.63% with LOX IMVI; -12.2% in the assay with HT-29; -0.88% with OVCAR-5; 10% in the assay on HCT-116; -1.92% in the assay with CCRF-CEM; -12.3% in the assay on DU-145. Moreover, the values for the inhibition of growth at 10 µM in the assay on NCI/ADR-RES, in the assay on HCC 2998 and in the assay on MDA-MB-435 were 6.5%, -25.6% and -5.13%, respectively.
